For 4 molecules, Activity, MNTC and MIC results are on record in ChEMBL document CHEMBL3045118, “Synthesis and biological activities of new Mannich bases of chlorokojic acid derivatives” (Med Chem Res, 2011).

Converted amounts (≈) assume the structure as drawn. Where only a bound is given, the exact number is not on record here.

The subject of data set [1] is Human respirovirus 3. In words: Antiviral activity against Human parainfluenza virus 3 infected African green monkey Vero cells assessed as concentration required to cause minimum inhibition of virus-induced cytopathic effect. Type of data set: functional.
Data set [2] concerns Human respirovirus 3. In words: Antiviral activity against Human parainfluenza virus 3 infected African green monkey Vero cells assessed as concentration required to cause maximum inhibition of virus-induced cytopathic effect. Type of data set: functional.
A short description of data set [3]: Cytotoxicity against Chlorocebus aethiops (African green monkey) Vero cells assessed as maximum non-toxic concentration. Type of data set: cell-based. The following applies: chlorocebus sabaeus, read-out: MNCC.
For data set [4], the system named is Human alphaherpesvirus 1. In words: Antiviral activity against Human herpesvirus 1 infected bovine MDBK cells assessed as concentration required to cause minimum inhibition of virus-induced cytopathic effect. Type of data set: functional. (Cytopathic effects are the visible damage that an infection or toxin causes in cultured cells.)
The subject of data set [5] is Human alphaherpesvirus 1. In words: Antiviral activity against Human herpesvirus 1 infected bovine MDBK cells assessed as concentration required to cause maximum inhibition of virus-induced cytopathic effect. Type of data set: functional.
A short description of data set [6]: Cytotoxicity against Bos taurus (bovine) MDBK cells assessed as maximum non-toxic concentration. Type of data set: cell-based. As to conditions: cattle, read-out: MNCC.
Another data set relates to Candida albicans. As to the kind of experiment: Antifungal activity against Candida albicans ATCC 10231 by microdilution method. Type of data set: functional. For orientation: In broth dilution the organism is exposed to a series of concentrations in liquid medium.
A further data set concerns Candida parapsilosis. As to the kind of experiment: Antifungal activity against Candida parapsilosis ATCC 22019 by microdilution method. Type of data set: functional. The following applies: Lodderomyces parapsilosis.
For data set [7], the system named is Bacillus subtilis. As to the kind of experiment: Antibacterial activity against ceftriaxon-resistant Bacillus subtilis by microdilution method. Type of data set: functional.
The subject of data set [8] is Enterococcus faecalis. In words: Antibacterial activity against cephalosporins and beta-lactam-resistant Enterococcus faecalis by microdilution method. Type of data set: functional.
Data set [9] concerns Bacillus subtilis. In words: Antibacterial activity against Bacillus subtilis ATCC 6633 by microdilution method. Type of data set: functional.
For data set [10], the system named is Enterococcus faecalis. As to the kind of experiment: Antibacterial activity against Enterococcus faecalis ATCC 29212 by microdilution method. Type of data set: functional.
In data set [11] the test system is Staphylococcus aureus. As to the kind of experiment: Antibacterial activity against oxacillin, gentamicin, aztreonam, trimethoprim-sulfamethoxazole-resistant Staphylococcus aureus by microdilution method. Type of data set: functional.
Data set [12] relates to Staphylococcus aureus. In words: Antibacterial activity against Staphylococcus aureus ATCC 25923 by microdilution method. Type of data set: functional.
In data set [13] the test system is Acinetobacter baumannii. In words: Antibacterial activity against trimethoprim-sulfamethoxazole, cefepime-resistant Acinetobacter baumannii by microdilution method. Type of data set: functional.
For data set [14], the system named is Acinetobacter baumannii. As to the kind of experiment: Antibacterial activity against Acinetobacter baumannii RSKK 02026 by microdilution method. Type of data set: functional.
In data set [15] the test system is Klebsiella pneumoniae. As to the kind of experiment: Antibacterial activity against ESbetaL positive trimethoprim-sulfamethoxazole, amoxicillin clavulonat, cefriaxon, cephepim, aztreonam-resistant Klebsiella pneumoniae by microdilution method. Type of data set: functional.
The subject of data set [16] is Klebsiella pneumoniae. In words: Antibacterial activity against Klebsiella pneumoniae RSKK 574 by microdilution method. Type of data set: functional.
Data set [17] relates to Proteus mirabilis. In words: Antibacterial activity against Proteus mirabilis ATCC 7002 by microdilution method. Type of data set: functional.
The test system of data set [18] is Proteus mirabilis. In words: Antibacterial activity against ESbetaL positive rimethoprim-sulfamethoxazole, cefepime, tazobactam-resistant Proteus mirabilis by microdilution method. Type of data set: functional.
Data set [19] deals with Pseudomonas aeruginosa. As to the kind of experiment: Antibacterial activity against trimethoprim-sulfamethoxazole, tazobactam-resistant Pseudomonas aeruginosa by microdilution method. Type of data set: functional.
Data set [20] deals with Pseudomonas aeruginosa. As to the kind of experiment: Antibacterial activity against Pseudomonas aeruginosa ATCC 10145 by microdilution method. Type of data set: functional.
The subject of data set [21] is Escherichia coli. As to the kind of experiment: Antibacterial activity against ESbetaL positive trimethoprim-sulfamethoxazole, cefepime, tazobactam-resistant Escherichia coli isolate by microdilution method. Type of data set: functional.
Data set [22] deals with Escherichia coli. In words: Antibacterial activity against Escherichia coli ATCC 35218 by microdilution method. Type of data set: functional.

As for `O=c1cc(CCl)oc(CN2CCN(c3ccc(Cl)cc3)CC2)c1O`, the Activity was found to be 0.025 µg/mL with Human respirovirus 3 [1], 0.4 µg/mL with Human respirovirus 3 [2], 0.1 µg/mL in the data set with Human alphaherpesvirus 1 [4] and 0.4 µg/mL with Human alphaherpesvirus 1 [5]. In addition, the values for the MNTC in data set [3] and in data set [6] were 0.4 µg/mL and 1.6 µg/mL, respectively. In addition, the MIC is 16 µg/mL (≈ 43.3 µM) against Candida albicans; 16 µg/mL (≈ 43.3 µM) in the data set with Candida parapsilosis; over 128 µg/mL in the data set on Bacillus subtilis [7]; over 128 µg/mL against Enterococcus faecalis [8]; 16 µg/mL (≈ 43.3 µM) in the data set with Bacillus subtilis [9]; 8 µg/mL (≈ 21.7 µM) in the data set with Enterococcus faecalis [10]. Moreover, the MIC is over 128 µg/mL against Staphylococcus aureus [11]; 8 µg/mL (≈ 21.7 µM) with Staphylococcus aureus [12]; over 128 µg/mL against Acinetobacter baumannii [13]; 64 µg/mL (≈ 173 µM) with Acinetobacter baumannii [14]; over 128 µg/mL with Klebsiella pneumoniae [15]; 64 µg/mL (≈ 173 µM) against Klebsiella pneumoniae [16]. Further, the MIC in the data set on Proteus mirabilis [17] was 64 µg/mL (≈ 173 µM); with Proteus mirabilis [18], over 128 µg/mL; with Pseudomonas aeruginosa [19] it was over 128 µg/mL; in the data set on Pseudomonas aeruginosa [20] it was 64 µg/mL (≈ 173 µM); in the data set on Escherichia coli [21] it was over 128 µg/mL; against Escherichia coli [22], 64 µg/mL (≈ 173 µM).
Turning to `O=c1cc(CCl)oc(CN2CCN(c3ccc(F)cc3)CC2)c1O`, the Activity with Human respirovirus 3 [1] stood at 0.025 µg/mL; in the data set on Human respirovirus 3 [2] it was 0.2 µg/mL; in the data set on Human alphaherpesvirus 1 [4] it was 0.05 µg/mL; in the data set with Human alphaherpesvirus 1 [5] it was 0.8 µg/mL. The MNTC in data set [3] worked out at 1.6 µg/mL; in data set [6], 0.8 µg/mL. The MIC stood at 8 µg/mL (≈ 22.7 µM) against Candida albicans; 8 µg/mL (≈ 22.7 µM) against Candida parapsilosis; 32 µg/mL (≈ 90.7 µM) with Bacillus subtilis [7]; 32 µg/mL (≈ 90.7 µM) in the data set with Enterococcus faecalis [8]; 16 µg/mL (≈ 45.4 µM) against Bacillus subtilis [9]; 16 µg/mL (≈ 45.4 µM) against Enterococcus faecalis [10]. Further, the MIC with Staphylococcus aureus [11] worked out at 64 µg/mL (≈ 181 µM); in the data set on Staphylococcus aureus [12], 16 µg/mL (≈ 45.4 µM); in the data set with Acinetobacter baumannii [13] it was 64 µg/mL (≈ 181 µM); against Acinetobacter baumannii [14], 32 µg/mL (≈ 90.7 µM); against Klebsiella pneumoniae [15], 64 µg/mL (≈ 181 µM); with Klebsiella pneumoniae [16], 16 µg/mL (≈ 45.4 µM). Also, the MIC against Proteus mirabilis [17] was determined as 16 µg/mL (≈ 45.4 µM); in the data set on Proteus mirabilis [18], 64 µg/mL; with Pseudomonas aeruginosa [19] it was 64 µg/mL; against Pseudomonas aeruginosa [20], 32 µg/mL (≈ 90.7 µM); in the data set on Escherichia coli [21], 64 µg/mL; in the data set with Escherichia coli [22], 16 µg/mL (≈ 45.4 µM).
For the molecule `O=c1cc(CCl)oc(CN2CCN(c3cccc(C(F)(F)F)c3)CC2)c1O`, the Activity in the data set on Human respirovirus 3 [1] was found to be 0.025 µg/mL; in the data set with Human respirovirus 3 [2] it was 0.4 µg/mL; with Human alphaherpesvirus 1 [4], 0.05 µg/mL; in the data set with Human alphaherpesvirus 1 [5], 0.8 µg/mL. Moreover, the MNTC in data set [3] and in data set [6] was 0.8 µg/mL in each case. Further, the MIC against Candida albicans was 8 µg/mL (≈ 19.9 µM); against Candida parapsilosis, 8 µg/mL (≈ 19.9 µM); in the data set with Bacillus subtilis [7], 64 µg/mL (≈ 159 µM); against Enterococcus faecalis [8] it was 32 µg/mL (≈ 79.4 µM); with Bacillus subtilis [9] it was 32 µg/mL (≈ 79.4 µM); with Enterococcus faecalis [10], 16 µg/mL (≈ 39.7 µM). For the same molecule, the MIC against Staphylococcus aureus [11] was 64 µg/mL (≈ 159 µM); against Staphylococcus aureus [12], 32 µg/mL (≈ 79.4 µM); against Acinetobacter baumannii [13] it was 64 µg/mL (≈ 159 µM); in the data set on Acinetobacter baumannii [14], 32 µg/mL (≈ 79.4 µM); against Klebsiella pneumoniae [15], 64 µg/mL (≈ 159 µM); against Klebsiella pneumoniae [16], 16 µg/mL (≈ 39.7 µM). Also, the MIC was determined as 16 µg/mL (≈ 39.7 µM) against Proteus mirabilis [17]; 64 µg/mL in the data set with Proteus mirabilis [18]; 64 µg/mL in the data set with Pseudomonas aeruginosa [19]; 16 µg/mL (≈ 39.7 µM) against Pseudomonas aeruginosa [20]; 64 µg/mL in the data set with Escherichia coli [21]; 16 µg/mL (≈ 39.7 µM) in the data set on Escherichia coli [22].
Consider `COc1ccc(N2CCN(Cc3oc(CCl)cc(=O)c3O)CC2)cc1`, for which the Activity in the data set on Human respirovirus 3 [1] was found to be 0.05 µg/mL; with Human respirovirus 3 [2], 0.8 µg/mL; with Human alphaherpesvirus 1 [4], 0.1 µg/mL; in the data set on Human alphaherpesvirus 1 [5], 1.6 µg/mL. The MNTC in [3] and in [6] was 1.6 µg/mL throughout. In addition, the MIC in the data set on Candida albicans came to 8 µg/mL (≈ 21.9 µM); in the data set on Candida parapsilosis, 8 µg/mL (≈ 21.9 µM); in the data set on Bacillus subtilis [7], 64 µg/mL (≈ 175 µM); against Enterococcus faecalis [8], 64 µg/mL (≈ 175 µM); in the data set with Bacillus subtilis [9], 32 µg/mL (≈ 87.7 µM); with Enterococcus faecalis [10] it was 32 µg/mL (≈ 87.7 µM). Also, the MIC stood at 64 µg/mL (≈ 175 µM) with Staphylococcus aureus [11]; 32 µg/mL (≈ 87.7 µM) in the data set with Staphylococcus aureus [12]; 32 µg/mL (≈ 87.7 µM) with Acinetobacter baumannii [13]; 16 µg/mL (≈ 43.9 µM) with Acinetobacter baumannii [14]; 32 µg/mL (≈ 87.7 µM) against Klebsiella pneumoniae [15]; 16 µg/mL (≈ 43.9 µM) in the data set on Klebsiella pneumoniae [16]. In addition, the MIC was found to be 32 µg/mL (≈ 87.7 µM) in the data set on Proteus mirabilis [17]; 64 µg/mL with Proteus mirabilis [18]; 64 µg/mL in the data set on Pseudomonas aeruginosa [19]; 16 µg/mL (≈ 43.9 µM) in the data set on Pseudomonas aeruginosa [20]; 64 µg/mL with Escherichia coli [21]; 32 µg/mL (≈ 87.7 µM) against Escherichia coli [22].

The MIC is the least concentration at which growth counts as inhibited.
